These are literature values, as cited in patent publication US9119805B2, “Therapy and prevention of problem drinking” (THE UNIVERSITY OF SYDNEY, priority 2009, dated 2015).

Starred links: 1 amine or outer side, 2 acyl side, 3 side chain; linkers in the order of their positions; H or OH if unused. Positions of bridges follow the written chain, without caps; N, C: chain ends. Residues, ends and D or L forms follow the SMILES beside them. X1 = O=C(CCC[*:2])[*:1]

The test system of one series is vasopressin receptor. The conditions noted are these: cited from earlier work.
For series [1] the following is noted: animal tests; cited from earlier work.
The conditions of series [2]: compared with exogenously applied oxytocin; cited from earlier work.
For a further series, the system named is dependent drinkers. To be noted: cited from earlier work.
For another series, the target named is oxytocin receptor (Homo sapiens, UniProt P30559). The conditions noted are these: compared to native oxytocin; cited from earlier work.
Sequence of oxytocin receptor (P30559 whole entry): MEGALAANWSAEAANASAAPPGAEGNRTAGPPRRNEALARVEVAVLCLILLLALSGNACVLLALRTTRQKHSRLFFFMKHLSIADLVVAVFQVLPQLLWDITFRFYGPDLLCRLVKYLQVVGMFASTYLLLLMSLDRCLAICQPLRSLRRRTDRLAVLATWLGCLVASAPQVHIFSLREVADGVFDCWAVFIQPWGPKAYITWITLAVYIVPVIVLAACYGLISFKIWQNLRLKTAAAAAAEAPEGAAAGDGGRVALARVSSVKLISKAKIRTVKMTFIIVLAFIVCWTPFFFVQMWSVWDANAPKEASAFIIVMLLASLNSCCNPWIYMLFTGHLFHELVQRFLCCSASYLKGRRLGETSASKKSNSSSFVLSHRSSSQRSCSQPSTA

Consider `Cc1cc(C(=O)N2Cc3cnn(C)c3Nc3ccccc32)ccc1CNC(=O)N1CCN(Cc2cc(O)cc(O)c2)CC1` [WAY-267,464], for which, in the series on vasopressin receptor, the “affinity for the vasopressin receptor” value is given as “negligible affinity”. Moreover, in series [1], the anti-depressant effect entry was “no apparent anti-depressant effect” and the centrally-mediated oxytocinergic actions result is given as “anxiolytic effects”. In series [2], the “extent of crossing the blood-brain-barrier” value is “significantly greater extent than exogenously applied oxytocin”.

As to `CC1(C)O[C@@H]2[C@@H](CO[C@@]3(COS(N)(=O)=O)OC(C)(C)O[C@@H]23)O1` [Topiramate], the “proportion of subjects with 28 consecutive days of abstinence or non-hazardous/harmful drinking” value with dependent drinkers (short-term abstinence) is recorded as “increased the proportion”. Take `CC(=O)NCCCS(=O)(=O)O` [acamprosate]: the patients continuously abstinent entry in the series with dependent drinkers (after 6 months, placebo 23%) is listed as “about 36%”. In the case of `CC[C@H](C)[C@@H]1NC(=O)[C@H](Cc2ccc(OC)cc2)NC(=O)CCCSC[C@@H](C(=O)N2CCC[C@H]2C(=O)N[C@@H](CC(C)C)C(=O)NCC(N)=O)NC(=O)[C@H](CC(N)=O)NC(=O)[C@H](CCC(N)=O)NC1=O` [carbetocin, 1-deamino-1-monocarba-[2-O-methyltyrosine]-oxytocin] (Y(Me)IQNCPLG-NH2; linker N-5 via X1), at oxytocin receptor, the duration of activity result was “long-lasting activity”. With `O=C1CC[C@@]2(O)[C@H]3Cc4ccc(O)c5c4[C@@]2(CCN3CC2CC2)[C@H]1O5` [naltrexone], the reduction of relapse result in the series on dependent drinkers (oral, during the first 3 months) is “about 36%”.
